How the values were obtained:
[1] = tested on: HIV-1AZT7 (M41L/D67N/K70R/T215F/K219Q); assay: Drug susceptibility assay against drug-resistant HIV, fold resistance; format: cell-based; settings: EC50 for mutant HIV-1 divided by EC50 for WT HIV-1
Procedure: At 48 h post-infection, a cell lysis buffer and luminescent substrate (Gal-Screen; Tropix/Applied Biosystems) was added to each well, and relative light unit values were determined using a luminometer (ThermoLabSystems, Waltham, Mass.).
Drug susceptibility assays were performed using the single- and multiple-replication-cycle assays also described above.

[2] = tested on: HIV-1 RT containing TAMS; settings: cited from earlier work
[3] = tested on: adenosine deaminase; format: in vitro ADME; settings: 7 minutes with 0.002 units of enzyme; 50 μM, pH 7.4, 25° C.
Procedure: To determine the propensity for deamination of the APN nucleosides by adenosine deaminase, compounds were incubated with the commercially available purified enzyme, and the reaction was followed spectrophotometrically. Reaction conditions were 50 mM potassium phosphate, pH 7.4, with 50 μM APN nucleoside in 0.5 mL at 25° C. Reaction time was 7 minutes with 0.002 units of enzyme and 120 minutes with 0.2 units of enzyme. (The unit definition of adenosine deaminase is one unit will deaminate 1.0 μmol of adenosine to inosine per minute at pH 7.5 at 25° C.) Deoxyadenosine was the positive control which was 59% deaminated under the given conditions in 7 minutes with 0.002 units of enzyme. Deoxyguanosine was the negative control. Optical density was measured at 265 nm or 285 nm. The difference in optical density between the beginning and the end of the experiment was divided by the extinction coefficient then multiplied by the volume of the reaction to determine the number of mols of substrate transformed into product. Mols of product were divided by mols of substrate equivalent to a 100% complete reaction then multiplied by 100 to obtain percent deamination. The limit of detection was 0.001 optical density units.

[4] = tested on: HepG2 cells; settings: HepG2 cells incubated with 10 μM; cited from earlier work

For Cc1cn([C@H]2C[C@H](N=[N+]=[N-])[C@@H](CO)O2)c(=O)[nH]c1=O [AZT, 3′-azido-3′-deoxythymidine], the fold resistance [1] was > 500 fold.

For Cc1cn([C@H]2C[C@H](N=[N+]=[N-])[C@@H](COP(=O)(O)O)O2)c(=O)[nH]c1=O [AZT-MP], the “lower sensitivity of excision to inhibition by the next-correct dNTP than other NRTI analogs that lack a 3′-azido group” value [2] is given as > 50 fold.

Work on Nc1ncnc2c1ncn2[C@H]1C[C@H](O)[C@@H](CO)O1 [Deoxyadenosine] yielded a percent deamination [3] of 59%.

In the case of O=c1[nH]c(=O)n([C@@H]2O[C@H](CO)[C@@H](O)[C@@H]2F)cc1I [fialuridine, 1,2′-deoxy-2′-fluoro-1-D-arabinofuranosly-5-iodo-uracil], the “mitochondrial morphology in electron micrographs” value [4] is listed as “enlarged mitochondria with morphological changes consistent with mitochondrial dysfunction”.

— US20100279969A1, “AZIDO PURINE NUCLEOSIDES FOR TREATMENT OF VIRAL INFECTIONS” (priority 2007, published 2010)
